Source: US9309200B2, “Benzazepine derivatives, pharmaceutical compositions containing them, and their use in therapy” (AbbVie Deutschland GmbH & Co. KG, priority 2011, dated 2016)
Where a name gives a salt, the structure may show the parent alone.

What was measured:
[1] = biological target: T1, human GlyT1c transporter (Homo sapiens, UniProt P48067); test: Radioligand binding assay using recombinant CHO cell membranes expressing human GlyT1; conditions: read-out: radioligand binding Kiapp
T1 construct: expressed in transfected cells; host or cells: recombinant CHO cells (membranes); the uptake assay names the line hGlyT1c_5_CHO
T1 sequence (P48067 1-706): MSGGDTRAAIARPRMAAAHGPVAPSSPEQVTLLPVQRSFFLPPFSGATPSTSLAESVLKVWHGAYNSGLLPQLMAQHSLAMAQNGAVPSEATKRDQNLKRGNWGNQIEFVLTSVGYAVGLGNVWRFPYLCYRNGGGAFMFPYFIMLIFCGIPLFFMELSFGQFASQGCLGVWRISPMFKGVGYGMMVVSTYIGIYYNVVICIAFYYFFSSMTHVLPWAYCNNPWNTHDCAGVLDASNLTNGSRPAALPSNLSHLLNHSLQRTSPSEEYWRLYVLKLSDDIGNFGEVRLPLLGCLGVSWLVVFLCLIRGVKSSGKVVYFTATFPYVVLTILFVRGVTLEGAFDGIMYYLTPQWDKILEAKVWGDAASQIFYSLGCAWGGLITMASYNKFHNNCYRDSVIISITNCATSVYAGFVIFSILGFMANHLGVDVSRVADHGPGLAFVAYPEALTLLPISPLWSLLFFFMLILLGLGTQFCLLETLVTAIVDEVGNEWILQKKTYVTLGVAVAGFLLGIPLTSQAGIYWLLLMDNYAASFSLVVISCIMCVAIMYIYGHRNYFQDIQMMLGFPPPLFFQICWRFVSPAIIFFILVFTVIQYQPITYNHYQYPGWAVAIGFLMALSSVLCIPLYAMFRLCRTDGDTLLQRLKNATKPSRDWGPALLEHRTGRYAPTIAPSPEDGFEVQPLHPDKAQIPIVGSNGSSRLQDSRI
Protocol: 2. Radioligand Binding Assays Using Recombinant CHO Cell Membranes Expressing Human GlyT1:
Radioligand binding to human GlyT1c transporter-expressing membranes was determined as described in Mezler et al., Molecular Pharmacology 74:1705-1715, 2008.

[2] = Metabolic stability in human liver microsomes (microsomal clearance); assay type: in vitro ADME; conditions: human liver microsomes 0.25 mg protein/ml, 0.5 μM test substance, NADPH 1.0 mM, pH 7.4, 37° C.
Protocol: The metabolic stability of a compound can be measured for example by incubating a solution of this compound with liver microsomes from particular species (for example rat, dog or human) and determining the half-life of the compound under these conditions (R S Obach, Curr Opin Drug Discov Devel. 2001, 4, 36-44). It is possible in this connection to conclude from an observed longer half-life that the metabolic stability of the compound is improved. The stability in the presence of human liver microsomes is of particular interest because it makes it possible to predict the metabolic degradation of the compound in the human liver. Compounds with increased metabolic stability (measured in the liver microsome test) are therefore probably also degraded more slowly in the liver. The slower metabolic degradation in the liver may lead to higher and/or longer-lasting concentrations (active levels) of the compound in the body, so that the elimination half-life of the compounds of the invention is increased. Increased and/or longer-lasting active levels may lead to a better activity of the compound in therapeutic treatment. In addition, an improved metabolic stability may lead to an increased bioavailability after oral administration, because the compound is subject, after absorption in the intestine, to less metabolic degradation in the liver (so-called first pass effect). An increased oral bioavailability may, owing to an increased concentration (active level) of the compound, lead to a better activity of the compound after oral administration.
Metabolic stability was determined as follows:
0.5 μM test substance was preincubated together with human liver microsomes (0.25 mg of microsomal protein/ml) in 0.05 M potassium phosphate buffer of pH 7.4 in microtiter plates at 37° C. for 5 min. The reaction was started by adding NADPH (1.0 mM). After 0, 5, 10, 15, 20 and 30 min, 65 μl aliquots were removed, and the reaction was immediately stopped and cooled with twice the amount of ethanol. The samples were frozen until analyzed. The remaining concentration of undegraded test substance was determined by LC MSMS. The half-life (T½) was determined from the gradient of the signal of test substance/unit time plot, allowing to calculate the half-life of the test substance, assuming first order kinetics, from the decrease in the concentration of the compound with time. The microsomal clearance (mCl) was calculated from mCl=ln 2/T½/(content of microsomal protein in mg/ml)×1000 (modified from references: Di, The Society for Biomolecular Screening, 2003, 453-462; Obach, DMD, 1999 vol 27. N 11, 1350-1359).

Ki [1] [nM]	human mCl [2]	Structure (SMILES)
≤ 100	≦50 μl/min/mg	O=S(=O)(CC1CC1)NCCOc1cc2c(cc1F)CCCNC2Cc1ccccc1 (stereo not shown) [Example 46, N-[2-(1-Benzyl-7-fluoro-2,3,4,5-tetrahydro-1H-benzo[c]azepin-8-yloxy)-ethyl]-C-cyclopropyl-methanesulfonamide]
≤ 10000	≦50 μl/min/mg	CCS(=O)(=O)NCCOc1ccc2c(c1)C(Cc1ccccc1)NCCO2 (stereo not shown) [Example 50, Ethanesulfonic acid [2-(5-benzyl-2,3,4,5-tetrahydro-benzo[f][1,4]oxazepin-7-yloxy)-ethyl]-amide]
≤ 100	≦50 μl/min/mg	Cn1cnc(S(=O)(=O)NCCOc2ccc3c(c2)C(Cc2ccccc2)NCCO3)c1 (stereo not shown) [Example 48, 1-Methyl-1H-imidazole-4-sulfonic acid [2-(5-benzyl-2,3,4,5-tetrahydro-benzo[f][1,4]oxazepin-7-yloxy)-ethyl]-amide]
≤ 1000	≦100 μl/min/mg	O=S(=O)(NCCOc1ccc2c(c1)C(Cc1ccccc1)NCCO2)C1CCC1 (stereo not shown) [Example 52, Cyclobutanesulfonic acid [2-(5-benzyl-2,3,4,5-tetrahydro-benzo[f][1,4]oxazepin-7-yloxy)-ethyl]-amide]
≤ 100	≦50 μl/min/mg	O=C(O)/C=C/C(=O)O.O=S(=O)(CC1CC1)NCc1cc2c(cc1F)CCCNC2Cc1ccccc1 (stereo not shown) [Example 44, N-(1-Benzyl-7-fluoro-2,3,4,5-tetrahydro-1H-benzo[c]azepin-8-ylmethyl)-C-cyclopropyl-methanesulfonamide; compound with (E)-but-2-enedioic acid]
≤ 1000	≦50 μl/min/mg	CCS(=O)(=O)NCc1cc2c(cc1F)CCCNC2Cc1ccccc1.O=C(O)C(F)(F)F (stereo not shown) [Example 42, Ethanesulfonic acid (1-benzyl-7-fluoro-2,3,4,5-tetrahydro-1H-benzo[c]azepin-8-ylmethyl)-amide; compound with trifluoro-acetic acid]
≤ 1000	≦50 μl/min/mg	CCS(=O)(=O)NCCOc1cc2c(cc1F)CCCNC2Cc1ccccc1 (stereo not shown) [Example 43, Ethanesulfonic acid [2-(1-benzyl-7-fluoro-2,3,4,5-tetrahydro-1H-benzo-[c]azepin-8-yloxy)-ethyl]-amide]
≤ 100		CCCS(=O)(=O)NCCOc1ccc2c(c1)C(Cc1ccccc1)NCCC2 (stereo not shown) [Example 10, Propane-1-sulfonic acid [2-(1-benzyl-2,3,4,5-tetrahydro-1H-benzo[c]azepin-8-yloxy)-ethyl]-amide]
≤ 1000		O=S(=O)(CC1CC1)NCCOc1ccc2c(c1)C(Cc1ccc(Cl)cc1)NCCC2 (stereo not shown) [Example 12, N-{2-[1-(4-Chlorobenzyl)-2,3,4,5-tetrahydro-1H-benzo[c]azepin-8-yloxy]-ethyl}-C-cyclopropyl-methanesulfonamide]
≤ 10		Cn1cnc(S(=O)(=O)NCc2cc3c(cc2F)CCCNC3Cc2ccccc2)c1 (stereo not shown) [Example 41, 1-Methyl-1H-imidazole-4-sulfonic acid (1-benzyl-7-fluoro-2,3,4,5-tetrahydro-1H-benzo[c]azepin-8-ylmethyl)-amide]
≤ 100		Cn1cc(S(=O)(=O)NCc2ccc3c(c2)C(Cc2ccc(Cl)cc2)NCCC3)cn1 (stereo not shown) [Example 19, 1-Methyl-1H-pyrazole-4-sulfonic acid [1-(4-chloro-benzyl)-2,3,4,5-tetrahydro-1H-benzo-[c]azepin-8-ylmethyl]-amide]
≤ 1000		CCS(=O)(=O)NCCOc1ccc2c(c1)C(Cc1ccccc1)NCCC2 (stereo not shown) [Example 11, Ethanesulfonic acid [2-(1-benzyl-2,3,4,5-tetrahydro-1H-benzo[c]azepin-8-yloxy)-ethyl]-amide]
≤ 100	≦50 μl/min/mg	Cn1cnc(S(=O)(=O)NCCOc2cc3c(cc2F)CCCNC3Cc2ccccc2)c1 (stereo not shown) [Example 45, 1-Methyl-1H-imidazole-4-sulfonic acid [2-(1-benzyl-7-fluoro-2,3,4,5-tetrahydro-1H-benzo[c]azepin-8-yloxy)-ethyl]amide]
≤ 100		CCN(Cc1ccc2c(c1)C(Cc1ccccc1)NCCC2)S(=O)(=O)c1cn(C)cn1 (stereo not shown) [Example 40, 1-Methyl-1H-imidazole-4-sulfonic acid (1-benzyl-2,3,4,5-tetrahydro-1H-benzo[c]azepin-8-ylmethyl)-ethyl-amide]
≤ 1000	≦100 μl/min/mg	O=S(=O)(CC1CC1)NCCOc1ccc2c(c1)C(Cc1ccccc1)NCCO2 (stereo not shown) [Example 53, N-[2-(5-Benzyl-2,3,4,5-tetrahydro-benzo[f][1,4]oxazepin-7-yloxy)-ethyl]-C-cyclopropyl-methanesulfonamide]
≤ 10		Cn1cc(S(=O)(=O)NCc2ccc3c(c2)C(Cc2ccccc2)NCCC3)cn1 (stereo not shown) [Example 34, 1-Methyl-1H-pyrazole-4-sulfonic acid (1-benzyl-2,3,4,5-tetra-hydro-1H-benzo[c]azepin-8-ylmethyl)-amide]
≤ 10000		CCS(=O)(=O)NCc1ccc2c(c1)C(Cc1ccc(Cl)cc1)NCCC2 (stereo not shown) [Example 16, Ethanesulfonic acid [1-(4-chloro-benzyl)-2,3,4,5-tetra-hydro-1H-benzo[c]azepin-8-ylmethyl]-amide]
≤ 10		Cn1cc(S(=O)(=O)NCCOc2ccc3c(c2)C(Cc2cccc(F)c2)NCCC3)cn1 (stereo not shown) [Example 21, 1-Methyl-1H-pyrazole-4-sulfonic acid {2-[1-(3-fluoro-benzyl)-2,3,4,5-tetrahydro-1H-benzo[c]azepin-8-yloxy]-ethyl}-amide]
≤ 10		Cn1cnc(S(=O)(=O)NCc2ccc3c(c2)C(Cc2ccccc2)NCCC3)c1 (stereo not shown) [Example 35, 1-Methyl-1H-imidazole-4-sulfonic acid (1-benzyl-2,3,4,5-tetra-hydro-1H-benzo[c]azepin-8-ylmethyl)-amide]
≤ 1000		O=S(=O)(NCc1ccc2c(c1)C(Cc1ccc(Cl)cc1)NCCC2)C1CCC1 (stereo not shown) [Example 17, Cyclobutanesulfonic acid [1-(4-chloro-benzyl)-2,3,4,5-tetra-hydro-1H-benzo[c]azepin-8-ylmethyl]-amide]
≤ 100		O=S(=O)(CC1CC1)NCCOc1ccc2c(c1)C(Cc1ccccc1)NCCC2 (stereo not shown) [Example 4, N-(2-(1-benzyl-2,3,4,5-tetrahydro-1H-benzo[c]azepin-8-yloxy)ethyl)-1-cyclopropylmethanesulfonamide]
> 10000		COc1ccc2c(c1)C(Cc1ccccc1)NCCC2 (stereo not shown) [Example 1, 1-Benzyl-8-methoxy-2,3,4,5-tetrahydro-1H-benzo[c]azepine]
≤ 1000		CCCS(=O)(=O)NCc1ccc2c(c1)C(Cc1cccc(F)c1)NCCC2 (stereo not shown) [Example 27, Propane-1-sulfonic acid [1-(3-fluoro-benzyl)-2,3,4,5-tetrahydro-1H-benzo[c]azepin-8-ylmethyl]-amide]
≤ 100		O=S(=O)(NCc1ccc2c(c1)C(Cc1ccccc1)NCCC2)C1CCC1 (stereo not shown) [Example 31, Cyclobutanesulfonic acid (1-benzyl-2,3,4,5-tetrahydro-1H-benzo[c]azepin-8-ylmethyl)-amide]
≤ 10000		COc1ccc2c(c1)C(C1(c3ccc(Cl)cc3)CCC1)NCCO2 (stereo not shown) [Example 5, 5-(1-(4-Chlorophenyl)cyclobutyl)-7-methoxy-2,3,4,5-tetrahydrobenzo[f][1,4]oxazepine hydrochloride]
